Here are results for 21 compounds from patent US20240124417A1, “COMPOUNDS USEFUL AS IMMUNOMODULATORS” (Bristol-Myers Squibb Company, priority 2019, published 2024).

The target of this assay is T1, PD-1/PD-L1 (Homo sapiens, UniProt Q9NZQ7).
T1 construct: TVMV protease site linker (C); made in house; host or cells: HEK293T cells
The assay can be described thus: PD-1/PD-L1 Homogenous Time-Resolved Fluorescence (HTRF) binding assay. The settings on record: PD-L1-His 10 nM, PD-1-Ig 20 nM. In outline: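 Time-resolved FRET read-out using Eu-cryptate anti-Ig (1 nM final) and APC anti-His (20 nM final). Tagged extracellular domains were used in BSA/Tween-20-supplemented dPBS, with compound pre-incubated 15 min with PD-L1-His (10 nM) before PD-1-Ig (20 nM) was added for 15 min. Other human pairs: PD-L2-His 5 nM with PD-1-Ig 20 nM; PD-L1-Ig 10 nM with CD80-His 100 nM.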
A general note: Time-resolved FRET reads energy transfer from a long-lived donor to a nearby acceptor.

T1 sequence (Q9NZQ7 18-239): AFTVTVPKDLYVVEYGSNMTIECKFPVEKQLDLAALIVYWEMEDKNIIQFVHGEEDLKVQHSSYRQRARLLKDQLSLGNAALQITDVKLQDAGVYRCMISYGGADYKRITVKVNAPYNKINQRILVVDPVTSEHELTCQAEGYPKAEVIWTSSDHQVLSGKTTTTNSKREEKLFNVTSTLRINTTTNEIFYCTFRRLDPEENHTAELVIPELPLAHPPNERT

As a reminder, the IC50 is the concentration at which inhibition is half-maximal. Read a high IC50 as weaker potency in that assay. Take `Cc1c(COc2cc(OCc3cncc(C#N)c3)c(CN3CCc4c(cnn4-c4ccccc4)C3)cc2Cl)cccc1-c1cccc(OCCCN2CC[C@@H](O)C2)c1C` [Example 2567, (R)-5-((4-chloro-5-((3′-(3-(3-hydroxypyrrolidin-1-yl)propoxy)-2,2′-dimethyl-[1,1′-biphenyl]-3-yl)methoxy)-2-((1-phenyl-1,4,6,7-tetrahydro-5H-pyrazolo[4,3-c]pyridin-5-yl)methyl)phenoxy)methyl)nicotinonitrile]: the IC50 is 22.8 nM.

For the compound `Cc1c(COc2cc(OCc3cncc(C#N)c3)c(CN3CCCC(c4cc[nH]n4)C3)cc2Cl)cccc1-c1cccc(OCCCN2CC[C@@H](O)C2)c1C` (stereo partly drawn) [Example 2568, 5-((2-((3-(1H-pyrazol-3-yl)piperidin-1-yl)methyl)-4-chloro-5-((3′-(3-((R)-3-hydroxypyrrolidin-1-yl)propoxy)-2,2′-dimethyl-[1,1′-biphenyl]-3-yl)methoxy)phenoxy)methyl)nicotinonitrile], the IC50 is 2.5 nM.

Take `Cc1c(COc2cc(OCc3cncc(C#N)c3)c(CN3CCc4cn[nH]c4C3)cc2Cl)cccc1-c1cccc(OCCCN2CC[C@@H](O)C2)c1C` [Example 2569, (R)-5-((4-chloro-5-((3′-(3-(3-hydroxypyrrolidin-1-yl)propoxy)-2,2′-dimethyl-[1,1′-biphenyl]-3-yl)methoxy)-2-((1,4,5,7-tetrahydro-6H-pyrazolo[3,4-c]pyridin-6-yl)methyl)phenoxy)methyl)nicotinonitrile]: the half-inhibitory concentration (IC50) is 5.5 nM.

The compound `Cc1n[nH]c(C)c1CNCc1cc(Cl)c(OCc2cccc(-c3cccc(OCCCN4CC[C@@H](O)C4)c3C)c2C)cc1OCc1cncc(C#N)c1` [Example 2570, (R)-5-((4-chloro-2-((((3,5-dimethyl-1H-pyrazol-4-yl)methyl)amino)methyl)-5-((3′-(3-(3-hydroxypyrrolidin-1-yl)propoxy)-2,2′-dimethyl-[1,1′-biphenyl]-3-yl)methoxy)phenoxy)methyl)nicotinonitrile] registered an IC50 of 1.5 nM.

With `CCc1nc(CN(CCOC)Cc2cc(Cl)c(OCc3cccc(-c4cccc(OCCCN5CC[C@@H](O)C5)c4C)c3C)cc2OCc2cncc(C#N)c2)[nH]c1CC` [Example 2571, (R)-5-((4-chloro-2-((((4,5-diethyl-1H-imidazol-2-yl)methyl)(2-methoxyethyl)amino)methyl)-5-((3′-(3-(3-hydroxypyrrolidin-1-yl)propoxy)-2,2′-dimethyl-[1,1′-biphenyl]-3-yl)methoxy)phenoxy)methyl)nicotinonitrile], the IC50 came out at 3.8 nM.

As to `Cc1n[nH]c(C)c1CN(C)Cc1cc(Cl)c(OCc2cccc(-c3cccc(OCCCN4CC[C@@H](O)C4)c3C)c2C)cc1OCc1cncc(C#N)c1` [Example 2572, (R)-5-((4-chloro-2-((((3,5-dimethyl-1H-pyrazol-4-yl)methyl)(methyl)amino)methyl)-5-((3′-(3-(3-hydroxypyrrolidin-1-yl)propoxy)-2,2′-dimethyl-[1,1′-biphenyl]-3-yl)methoxy)phenoxy)methyl)nicotinonitrile], the IC50 was 3.3 nM.

The compound `Cc1cc(CNCc2cc(Cl)c(OCc3cccc(-c4cccc(OCC5CCCN(C)C5)c4Cl)c3C)cc2OCc2cncc(C#N)c2)no1` (stereo not drawn) [Example 2575, 5-((4-chloro-5-((2′-chloro-2-methyl-3′-((1-methylpiperidin-3-yl)methoxy)-[1,1′-biphenyl]-3-yl)methoxy)-2-((((5-methylisoxazol-3-yl)methyl)amino)methyl)phenoxy)methyl)nicotinonitrile] registered an IC50 of 2.8 nM.

In turn, `Cc1c(COc2cc(OCc3cncc(C#N)c3)c(CNCc3cncs3)cc2Cl)cccc1-c1cccc(OCC2CCCN(C)C2)c1Cl` (stereo not drawn) [Example 2576, 5-((4-chloro-5-((2′-chloro-2-methyl-3′-((1-methylpiperidin-3-yl)methoxy)-[1,1′-biphenyl]-3-yl)methoxy)-2-(((thiazol-5-ylmethyl)amino)methyl)phenoxy)methyl)nicotinonitrile] had an IC50 of 2.5 nM.

`Cc1c(COc2cc(OCc3cncc(C#N)c3)c(CNCc3ncc[nH]3)cc2Cl)cccc1-c1cccc(OCC2CCCN(C)C2)c1Cl` (stereo not drawn) [Example 2577, 5-((2-((((1H-imidazol-2-yl)methyl)amino)methyl)-4-chloro-5-((2′-chloro-2-methyl-3′-((1-methylpiperidin-3-yl)methoxy)-[1,1′-biphenyl]-3-yl)methoxy)phenoxy)methyl)nicotinonitrile] showed an IC50 of 1.6 nM.

As to `Cc1c(COc2cc(OCc3cncc(C#N)c3)c(CNCc3ncn[nH]3)cc2Cl)cccc1-c1cccc(OCC2CCCN(C)C2)c1Cl` (stereo not drawn) [Example 2578, 5-((2-((((1H-1,2,4-triazol-5-yl)methyl)amino)methyl)-4-chloro-5-((2′-chloro-2-methyl-3′-((1-methylpiperidin-3-yl)methoxy)-[1,1′-biphenyl]-3-yl)methoxy)phenoxy)methyl)nicotinonitrile], the IC50 is 1.9 nM.

On to `Cc1c(COc2cc(OCc3cncc(C#N)c3)c(CNCCc3ncn[nH]3)cc2Cl)cccc1-c1cccc(OCC2CCCN(C)C2)c1Cl` (stereo not drawn) [Example 2579, 5-((2-(((2-(1H-1,2,4-triazol-5-yl)ethyl)amino)methyl)-4-chloro-5-((2′-chloro-2-methyl-3′-((1-methylpiperidin-3-yl)methoxy)-[1,1′-biphenyl]-3-yl)methoxy)phenoxy)methyl)nicotinonitrile], for which the IC50 came out at 0.5 nM.

Turning to `Cc1c(COc2cc(OCc3cncc(C#N)c3)c(CNCCc3c[nH]cn3)cc2Cl)cccc1-c1cccc(OCC2CCCN(C)C2)c1Cl` (stereo not drawn) [Example 2580, 5-((2-(((2-(1H-imidazol-4-yl)ethyl)amino)methyl)-4-chloro-5-((2′-chloro-2-methyl-3′-((1-methylpiperidin-3-yl)methoxy)-[1,1′-biphenyl]-3-yl)methoxy)phenoxy)methyl)nicotinonitrile], the IC50 was found to be 0.2 nM.

In the case of `Cc1c(COc2cc(OCc3cncc(C#N)c3)c(CN(C)Cc3cn[nH]c3)cc2Cl)cccc1-c1cccc(OCC2CCCN(C)C2)c1Cl` (stereo not drawn) [Example 2581, 5-((2-((((1H-pyrazol-4-yl)methyl)(methyl)amino)methyl)-4-chloro-5-((2′-chloro-2-methyl-3′-((1-methylpiperidin-3-yl)methoxy)-[1,1′-biphenyl]-3-yl)methoxy)phenoxy)methyl)nicotinonitrile], the IC50 was found to be 3.4 nM.

The compound `Cc1c(COc2cc(OCc3cncc(C#N)c3)c(CNCCc3cc[nH]n3)cc2Cl)cccc1-c1cccc(OCC2CCCN(C)C2)c1Cl` (stereo not drawn) [Example 2582, 5-((2-(((2-(1H-pyrazol-3-yl)ethyl)amino)methyl)-4-chloro-5-((2′-chloro-2-methyl-3′-((1-methylpiperidin-3-yl)methoxy)-[1,1′-biphenyl]-3-yl)methoxy)phenoxy)methyl)nicotinonitrile] came in with an IC50 of 3.7 nM.

Take `Cc1c(COc2cc(OCc3cncc(C#N)c3)c(CN3CCc4[nH]cnc4C3)cc2Cl)cccc1-c1cccc(OCC2CCCN(C)C2)c1Cl` (stereo not drawn) [Example 2583, 5-((4-chloro-5-((2′-chloro-2-methyl-3′-((1-methylpiperidin-3-yl)methoxy)-[1,1′-biphenyl]-3-yl)methoxy)-2-((1,4,6,7-tetrahydro-5H-imidazo[4,5-c]pyridin-5-yl)methyl)phenoxy)methyl)nicotinonitrile]: the IC50 was 2.3 nM.

In turn, `Cc1c(COc2cc(OCc3cncc(C#N)c3)c(CNCc3cncnc3)cc2Cl)cccc1-c1cccc(OCC2CCCN(C)C2)c1Cl` (stereo not drawn) [Example 2584, 5-((4-chloro-5-((2′-chloro-2-methyl-3′-((1-methylpiperidin-3-yl)methoxy)-[1,1′-biphenyl]-3-yl)methoxy)-2-(((pyrimidin-5-ylmethyl)amino)methyl)phenoxy)methyl)nicotinonitrile] returned an IC50 of 2.6 nM.

`Cc1c(COc2cc(OCc3cncc(C#N)c3)c(CNCc3nccs3)cc2Cl)cccc1-c1cccc(OCC2CCCN(C)C2)c1Cl` (stereo not drawn) [Example 2585, 5-((4-chloro-5-((2′-chloro-2-methyl-3′-((1-methylpiperidin-3-yl)methoxy)-[1,1′-biphenyl]-3-yl)methoxy)-2-(((thiazol-2-ylmethyl)amino)methyl)phenoxy)methyl)nicotinonitrile] showed an IC50 of 2.8 nM.

The compound `Cc1c(COc2cc(OCc3cncc(C#N)c3)c(CNCc3csc(N)n3)cc2Cl)cccc1-c1cccc(OCC2CCCN(C)C2)c1Cl` (stereo not drawn) [Example 2586, 5-((2-((((2-aminothiazol-4-yl)methyl)amino)methyl)-4-chloro-5-((2′-chloro-2-methyl-3′-((1-methylpiperidin-3-yl)methoxy)-[1,1′-biphenyl]-3-yl)methoxy)phenoxy)methyl)nicotinonitrile] returned an IC50 of 0.7 nM.

Take `Cc1c(COc2cc(OCc3cncc(C#N)c3)c(CN3CCc4[nH]ncc4C3)cc2Cl)cccc1-c1cccc(OCC2CCCN(C)C2)c1Cl` (stereo not drawn) [Example 2587, 5-((4-chloro-5-((2′-chloro-2-methyl-3′-((1-methylpiperidin-3-yl)methoxy)-[1,1′-biphenyl]-3-yl)methoxy)-2-((1,4,6,7-tetrahydro-5H-pyrazolo[4,3-c]pyridin-5-yl)methyl)phenoxy)methyl)nicotinonitrile]: the concentration for half-maximal inhibition (IC50) stood at 0.9 nM.

`Cc1c(COc2cc(OCc3cncc(C#N)c3)c(CNCc3cc[nH]n3)cc2Cl)cccc1-c1cccc(OCC2CCCN(C)C2)c1Cl` (stereo not drawn) [Example 2588, 5-((2-((((1H-pyrazol-3-yl)methyl)amino)methyl)-4-chloro-5-((2′-chloro-2-methyl-3′-((1-methylpiperidin-3-yl)methoxy)-[1,1′-biphenyl]-3-yl)methoxy)phenoxy)methyl)nicotinonitrile] gave an IC50 of 2 nM.

Compound `Cc1c(COc2cc(OCc3cncc(C#N)c3)c(CN3CCc4cn[nH]c4C3)cc2Cl)cccc1-c1cccc(OCC2CCCN(C)C2)c1Cl` (stereo not drawn) [Example 2589, 5-((4-chloro-5-((2′-chloro-2-methyl-3′-((1-methylpiperidin-3-yl)methoxy)-[1,1′-biphenyl]-3-yl)methoxy)-2-((1,4,5,7-tetrahydro-6H-pyrazolo[3,4-c]pyridin-6-yl)methyl)phenoxy)methyl)nicotinonitrile] had an IC50 of 7.9 nM.
